One experiment relates to normal mice. The experiment in a line: Light-dark test in normal mice. Type of experiment: in vivo, mouse. The following applies: normal male C57BL/6J mice, 30 mg/kg i.p., 60 min after administration, 10 min test. The procedure:
The effects of PA-8 and PA-81004 on normal mice were evaluated by a light-dark test (test to measure spontaneous locomotion by exploiting the properties of mice to avoid light environments, and placing the mice in a light box and a dark box joined together (each 20 cm×20 cm, height: 30 cm); in this test, anxiety-like behavior is evaluated by measuring times spent in the light box and the dark box and the number of transitions between the light box and the dark box).
Male C57BL/6J mice (8 to 12 weeks old) were acclimatized to a laboratory for 60 minutes. Then, a vehicle (10% DMSO solution; dissolved in saline; n=13), PA-8 (30 mg/kg; n=12) or PA-81004 (30 mg/kg; n=12) was intraperitoneally administered thereto (0.1 mL/10 g). After a lapse of 60 minutes after administration, the test was conducted for 10 minutes. The results are shown in FIG. 2 (A: time spent in the light box, B: the number of transitions between the light and dark boxes; light box illuminance: 330 lx).
The effects of PA-9 and PA-915 on normal mice were evaluated by the light-dark test.
Male C57BL/6J mice (8 to 12 weeks old) were acclimatized to a laboratory (illuminance: 330 lx) for 60 minutes. Then, a vehicle (10% DMSO solution; dissolved in saline; n=12), PA-9 (30 mg/kg; n=10) or PA-915 (30 mg/kg; n=10) was intraperitoneally administered thereto (0.1 mL/10 g). After a lapse of 60 minutes after administration, the test was conducted for 10 minutes. The results are shown in FIG. 6 (A: time spent in the light box, B: the number of transitions between the light and dark boxes; light box illuminance: 330 lx).

Experiment [1] relates to chronic social defeat stress mice. Briefly: Chronic social defeat stress, social preference or avoidance test (SPAT). Type of experiment: in vivo, mouse. Particulars: for effect on chronic social defeat stress-induced social behavioral abnormality (SPAT): 30 mg/kg i.p. once daily for 7 consecutive days, SPAT 30 min after final administration (Day 18); for sustained effect on social behavioral abnormality (social interaction ratio) / effect on social behavioral abnormality (social interaction ratio): Example 18; for sustained effect on social behavioral abnormality (social interaction ratio): 7, 14, 28 days after single i.p. dose (PA-915 30 mg/kg, ketamine 20 mg/kg), fluoxetine 20 mg/kg i.p. 14-day consecutive administration; for effect on social behavioral abnormality (social interaction ratio): single i.p. dose (PA-915 30 mg/kg, ketamine 20 mg/kg, fluoxetine 20 mg/kg), 60 minutes later (Day 12).
Text: When male C57BL/6N mice (8 to 12 weeks old) are allowed to coexist with ICR mice having a large physical size, the male C57BL/6N mice run about in the beginning in order to avoid attack by the ICR mice, but eventually make a posture to immediately raise their forelegs and accept defeats (obedience) by repeated load for 5 days to 10 days (chronic social defeat stress (SDS) load).
The social preference or avoidance test (SPAT) is a test that has received attention in recent years as a highly extrapolatable antidepressant drug screening system. SPAT evaluates the degree of interest in others (sociality). A box (which has a wired contact surface) is disposed in an open field. A time of contact with a target (time spent in an interaction zone) and a time spent in an avoidance zone are measured without the target (ICR mice) placed in the box in the first run and with the target (ICR mice) placed in the box in the second run. Time spent in the second run/Time spent in the first run is calculated (social interaction ratio). The social interaction ratio is decreased in chronic social defeat stress mice. Stress susceptibility differs among individuals, and susceptible individuals (social interaction ratio <1) and resilient individuals (social interaction ratio 1) are found.
(§1) Chronic social defeat stress was applied at 10 min/day for 10 days (Days 1 to 10) to male C57BL/6N mice (8 to 12 weeks old) each reared in isolation for 10 days or longer. On Day 11, the social preference or avoidance test (SPAT) was conducted, and susceptible mice were selected. A vehicle (10% DMSO solution; dissolved in saline; n=12) or PA-8 (30 mg/kg; n=9) was intraperitoneally administered once daily (0.1 mL/10 g) for 7 consecutive days from day 12. SPAT was conducted for 150 seconds 30 minutes after the final administration on the 7th day (Day 18). Mice reared for 10 days in a home cage without chronic social defeat stress load were used as a control (n=12). The results are shown in FIG. 15 (A: social interaction ratio, B: time spent in the interaction zone, C: time spent in the avoidance zone). The data was indicated by mean±standard error. *P<0.05 (One-way ANOVA followed by Tukey-Kramer test).
as §1, with “or PA-9” for “or PA-8”, “FIG. 17” for “FIG. 15”, “zone). […]” for “zone).”
Chronic social defeat stress was applied at 10 min/day for 10 days (Days 1 to 10) to male C57BL/6N mice (8 to 12 weeks old) each reared in isolation for 10 days or longer. On Day 11, the social preference or avoidance test (SPAT) was conducted, and susceptible mice were selected. On the next day (Day 12), a vehicle (10% DMSO solution; dissolved in saline; n=17) or PA-915 (30 mg/kg; n=17) was intraperitoneally administered (0.1 mL/10 g) to the mice. SPAT was conducted for 150 seconds 60 minutes later. Mice reared for 10 days in a home cage without chronic social defeat stress load were used as a control (n=22). The results are shown in FIG. 19 (A: social interaction ratio, B: time spent in the interaction zone, C: time spent in the avoidance zone). […] The data was indicated by mean±standard error. **P<0.01; *P<0.05 (One-way ANOVA followed by Tukey-Kramer test). […]

With `C=CCOc1ccc(C2CC(=O)Nc3nc(N)[nH]c(=O)c32)cc1OC` (stereo not drawn) [PA-8], the “pharmacological action in light-dark test (time in light box, transitions)” value (from here on “pharmacological action”) with normal mice is recorded as “no pharmacological action”. Besides, the “effect on chronic social defeat stress-induced social behavioral abnormality (SPAT)” value in experiment [1] is on record as “improving effect”.
For `O=C(NCCc1c[nH]cn1)C1CC(=O)N(c2n[nH]c3ccccc23)C1` (stereo not drawn) [PA-9], the “pharmacological action” value with normal mice is recorded as “no pharmacological action”. Moreover, in experiment [1], the “effect on chronic social defeat stress-induced social behavioral abnormality (SPAT)” value is reported as “tended to improve social behavioral abnormality”.
As to `Nc1nc2c(c(=O)[nH]1)C(c1cccc(OC(F)(F)F)c1)CC(=O)N2` (stereo not drawn) [PA-81004, 2-Amino-5-(3-trifluoromethoxyphenyl)-5,8-dihydro-3H,6H-pyrido[2,3-d]pyrimidine-4,7-dione], the “pharmacological action” value with normal mice is “no pharmacological action”.
Consider `CNCCC(Oc1ccc(C(F)(F)F)cc1)c1ccccc1` (stereo not drawn) [fluoxetine], for which, in experiment [1], the “sustained effect on social behavioral abnormality (social interaction ratio)” value was “neither the single-dose administration nor 14-day consecutive administration of fluoxetine improved social behavioral abnormality” and the “effect on social behavioral abnormality (social interaction ratio)” value is “neither the single-dose administration nor 14-day consecutive administration of fluoxetine improved social behavioral abnormality”.
For the compound `CNC1(c2ccccc2Cl)CCCCC1=O` (stereo not drawn) [ketamine], in experiment [1], the “sustained effect on social behavioral abnormality (social interaction ratio)” value is “maintained its effectiveness 7, 14, and 28 days later”; the “effect on social behavioral abnormality (social interaction ratio)” value is “improved social behavioral abnormality”.

The record behind these values is patent publication US12458643B2, “Antidepressant/anxiolytic drug in which PAC1 receptor antagonist is used” (KAGOSHIMA UNIVERSITY, priority 2020, dated 2025).
